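Values below derive from 48-hour exposures of cells grown in 96-well plates, with endpoints linearly interpolated between the two concentrations bracketing the appropriate inhibition level. GI50 = concentration required for 50% inhibition of growth. TGI denotes the concentration required for complete inhibition of growth.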 Active and inactive are the calls of the source. No stated cut-off is given here; in the data, active means GI50 below about 0.43 µM; inactive means the rest.
Experiments:
Test in all cases: DTP human tumour cell line panel, 48 h
M19-MEL melanoma = test system: M19-MEL melanoma
XF 498 CNS = test system: XF 498 CNS
DMS 273 small cell lung = test system: DMS 273 small cell lung
DLD-1 colon = test system: DLD-1 colon
MDA-MB-231 breast = test system: MDA-MB-231 breast
MDA-N = test system: MDA-N
MDA-MB-435 = test system: MDA-MB-435
PC-3 prostate = test system: PC-3 prostate
786-0 renal = test system: 786-0 renal
DU-145 prostate = test system: DU-145 prostate

Structure (SMILES): Cc1ccc(C#CS(=O)(=O)C(F)(F)F)cc1
- TGI (M19-MEL melanoma): > 100 µM
- TGI (XF 498 CNS): > 100 µM
- TGI (DMS 273 small cell lung): > 100 µM
- TGI (DLD-1 colon): > 100 µM

Structure (SMILES): NCCS(=O)(=O)O
- TGI (MDA-MB-231 breast): > 100 µM
- TGI (MDA-N): > 100 µM
- TGI (MDA-MB-435): > 100 µM
- TGI (PC-3 prostate): > 100 µM
- TGI (786-0 renal): > 100 µM
- TGI (DU-145 prostate): > 100 µM

Structure (SMILES): CC(=O)c1[nH]c(Nc2ccc(C)cc2)c(C(=S)Nc2ccccc2)c1N
- TGI (MDA-MB-231 breast): 35.7 µM
- TGI (MDA-N): 37.2 µM
- TGI (MDA-MB-435): 30.9 µM
- TGI (786-0 renal): 34.3 µM
- TGI (DU-145 prostate): 34.2 µM

Structure (SMILES): O=Cc1c(Br)[nH]c2ccccc12
- TGI (M19-MEL melanoma): > 100 µM
- TGI (XF 498 CNS): > 100 µM
- TGI (DMS 273 small cell lung): > 100 µM
- TGI (DLD-1 colon): > 100 µM

Structure (SMILES): O=C(c1ccccc1O)c1cc(-c2ncc3c(=O)c4ccccc4oc3n2)c(-c2ccccc2O)[nH]c1=O
- TGI (M19-MEL melanoma): > 68.2 µM
- TGI (XF 498 CNS): 67.9 µM
- TGI (DMS 273 small cell lung): 88.3 µM
- TGI (DLD-1 colon): > 61.5 µM

Structure (SMILES): N#Cc1ccc(C2Oc3ccc(Cl)cc3C=C2[N+](=O)[O-])cc1 (stereo not given)
- TGI (MDA-MB-231 breast): 3.63 µM
- TGI (MDA-N): 3.19 µM
- TGI (MDA-MB-435): 3.56 µM
- TGI (PC-3 prostate): 3.37 µM
- TGI (DU-145 prostate): 6.07 µM

Structure (SMILES): O=C(Nc1ccc(Sc2ccc(N=Nc3c(O)c(S(=O)(=O)O)cc4cc(S(=O)(=O)O)ccc34)cc2)cc1)c1ccc(N=Nc2c(O)c(S(=O)(=O)O)cc3cc(S(=O)(=O)O)ccc23)cc1
- TGI (M19-MEL melanoma): > 100 µM
- TGI (XF 498 CNS): > 100 µM
- TGI (786-0 renal): > 100 µM
- TGI (DMS 273 small cell lung): > 100 µM
- TGI (DLD-1 colon): > 100 µM

Structure (SMILES): C[N+]1([O-])[C@H]2CC(OC(=O)[C@H](CO)c3ccccc3)C[C@H]1[C@H]1O[C@H]12 (stereo not given in full)
- TGI (MDA-MB-231 breast): > 100 µM
- TGI (MDA-N): > 100 µM
- TGI (MDA-MB-435): > 100 µM
- TGI (PC-3 prostate): > 100 µM
- TGI (786-0 renal): > 100 µM
- TGI (DU-145 prostate): > 100 µM

Structure (SMILES): COc1ccc([C@H]2c3cc4c(cc3OC(O)(CO)[C@H]2C(=O)O)OCO4)c(OC)c1 (stereo not given in full) (tested in a mixture with another compound)
- TGI (M19-MEL melanoma): > 100 µM
- TGI (XF 498 CNS): > 100 µM
- TGI (DMS 273 small cell lung): > 100 µM
- TGI (DLD-1 colon): > 100 µM

Structure (SMILES): CCOC(=O)C1=C(c2ccccc2)C12N(Cc1ccccc1)C(=O)C2(c1ccccc1)c1ccccc1 (stereo not given)
- TGI (MDA-MB-231 breast): > 100 µM
- TGI (MDA-N): > 100 µM
- TGI (MDA-MB-435): > 100 µM
- TGI (PC-3 prostate): 75.5 µM
- TGI (DU-145 prostate): > 100 µM

Structure (SMILES): O=NN1C(c2ccccc2)CCCC1c1ccccc1 (stereo not given)
- TGI (M19-MEL melanoma): > 100 µM
- TGI (XF 498 CNS): 87.5 µM
- TGI (DMS 273 small cell lung): > 100 µM
- TGI (DLD-1 colon): > 100 µM

Structure (SMILES): COc1cc(/C(=C2/O[C@@H]([C@H]3COC(C)(C)O3)[C@H]3OC(C)(C)O[C@@H]23)c2ccc3c(c2)OCO3)cc(OC)c1OC
- GI50 (MDA-MB-231 breast): > 25 µM
- TGI (MDA-MB-231 breast): > 25 µM
- GI50 (MDA-MB-435): > 25 µM
- TGI (MDA-MB-435): > 25 µM
- GI50 (PC-3 prostate): > 25 µM
- TGI (PC-3 prostate): > 25 µM
- GI50 (DU-145 prostate): > 25 µM
- TGI (DU-145 prostate): > 25 µM

Structure (SMILES): O=P(O)(O)CN1CCNCCN(CP(=O)(O)O)CCN(CP(=O)(O)O)CCNCC1
- outcome (MDA-MB-231 breast): inactive
- outcome (MDA-MB-435): inactive
- outcome (PC-3 prostate): inactive
- outcome (786-0 renal): inactive
- outcome (DU-145 prostate): inactive

Structure (SMILES): O=C1c2cc3c(cc2CC1Cc1ccc2c(c1)CCC2)CCC3 (stereo not given)
- TGI (MDA-MB-231 breast): > 100 µM
- TGI (MDA-N): > 100 µM
- TGI (MDA-MB-435): > 100 µM
- TGI (PC-3 prostate): > 100 µM
- TGI (DU-145 prostate): > 100 µM

Structure (SMILES): O=C(c1ccccc1)c1c(C(F)(F)F)n([O-])c2cc(F)c(F)cc2[n+]1=O
- TGI (MDA-MB-435): 4.14 µM
- TGI (PC-3 prostate): 2.44 µM
- TGI (786-0 renal): 1.03 µM
- TGI (DU-145 prostate): 8.71 µM

Structure (SMILES): O=C(CSCC(=O)N/N=C\c1ccccc1F)N/N=C\c1ccccc1F
- TGI (MDA-MB-231 breast): > 100 µM
- TGI (MDA-MB-435): > 100 µM
- TGI (786-0 renal): > 100 µM
- TGI (DU-145 prostate): > 100 µM

Structure (SMILES): CCCCOc1ccc2c(c1)CC[C@@H]1[C@@H]2CC[C@]2(C)C(=O)N(CCCC)C(=O)C[C@@H]12
- TGI (MDA-MB-231 breast): > 100 µM
- TGI (MDA-N): > 100 µM
- TGI (MDA-MB-435): > 100 µM
- TGI (PC-3 prostate): > 100 µM
- TGI (DU-145 prostate): > 100 µM

Structure (SMILES): COc1cc(-c2nc3cc(Cl)c(Cl)cc3[nH]2)ccc1OCC(=O)N=Nc1c(O)[nH]c2ccc(Cl)cc12
- GI50 (MDA-MB-231 breast): 0.538 µM
- TGI (MDA-MB-231 breast): 1.95 µM

Reference: PubChem BioAssay (NCI)
